Results on two compounds are retold here after PMC5839718 (The Journal of General Physiology, 2018).

For assay [1], the system named is (α4)2(β2)3 nAChR from α4 and β2 (1:4). Particulars: 10 µM ACh, ref Timmermann et al. (2012); cited from earlier work.
Assay [2] addresses (α4)3(β2)2 nAChR from α4 and β2 (10:1) (Homo sapiens, UniProt P17787+P43681). Briefly: two-electrode voltage-clamp, X. laevis oocytes, α4 and β2 cRNA 10:1. It counts as cell-based.
In assay [3] the target is α4β2 nAChR from β-6-α-9-β-6-α and α4^VFL (1:1) (Homo sapiens, UniProt P17787+P43681, H142V/Q150F/T152L). Description: two-electrode voltage-clamp, oocytes, β-6-α-9-β-6-α and α4^VFL 1:1. It counts as cell-based. For orientation: Two-electrode voltage clamp holds a large cell at a set potential and records current.
Chain of α4β2 nAChR from β-6-α-9-β-6-α and α4^VFL (1:1) (P17787 26-502): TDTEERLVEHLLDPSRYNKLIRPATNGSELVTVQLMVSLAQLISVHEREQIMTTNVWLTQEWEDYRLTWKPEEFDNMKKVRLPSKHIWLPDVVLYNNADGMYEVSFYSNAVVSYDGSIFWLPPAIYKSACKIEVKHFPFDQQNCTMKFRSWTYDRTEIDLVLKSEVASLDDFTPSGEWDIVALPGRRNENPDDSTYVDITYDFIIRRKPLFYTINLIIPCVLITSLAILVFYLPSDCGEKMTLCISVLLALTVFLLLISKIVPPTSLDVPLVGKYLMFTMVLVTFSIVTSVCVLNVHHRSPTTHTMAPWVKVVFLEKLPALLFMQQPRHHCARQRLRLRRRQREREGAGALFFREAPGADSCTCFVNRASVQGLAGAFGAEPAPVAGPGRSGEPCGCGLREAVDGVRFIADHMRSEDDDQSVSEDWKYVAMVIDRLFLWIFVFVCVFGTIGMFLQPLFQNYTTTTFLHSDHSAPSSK
Chain of α4β2 nAChR from β-6-α-9-β-6-α and α4^VFL (1:1) (P43681 27-627, stated change not applied): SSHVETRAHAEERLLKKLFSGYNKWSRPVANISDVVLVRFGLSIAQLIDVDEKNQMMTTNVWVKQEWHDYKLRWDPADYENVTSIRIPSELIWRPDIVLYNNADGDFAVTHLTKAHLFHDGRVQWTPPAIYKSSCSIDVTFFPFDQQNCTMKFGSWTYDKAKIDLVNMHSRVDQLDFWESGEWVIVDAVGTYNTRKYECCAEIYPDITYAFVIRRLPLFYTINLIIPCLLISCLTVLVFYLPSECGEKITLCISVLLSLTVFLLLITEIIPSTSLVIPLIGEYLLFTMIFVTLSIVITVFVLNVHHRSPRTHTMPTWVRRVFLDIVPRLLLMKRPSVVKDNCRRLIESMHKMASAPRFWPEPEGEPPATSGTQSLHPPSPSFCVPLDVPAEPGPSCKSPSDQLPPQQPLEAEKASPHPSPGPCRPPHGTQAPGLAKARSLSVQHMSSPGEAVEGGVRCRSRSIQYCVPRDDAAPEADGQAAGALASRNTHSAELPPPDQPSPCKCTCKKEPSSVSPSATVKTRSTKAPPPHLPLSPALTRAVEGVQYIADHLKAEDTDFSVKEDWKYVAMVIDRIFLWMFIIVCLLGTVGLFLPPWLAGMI
Chain of α4β2 nAChR from β-6-α-9-β-6-α and α4^VFL (1:1) (P43681 27-627 H142V/Q150F/T152L): as the sequence (P43681 27-627, stated change not applied) above, with H116V, Q124F, T126L counted along it
Another assay addresses Ls-AChBP. Particulars: read-out: NS9283 Ki at Ls-AChBP; ref Olsen et al., 2014; cited from earlier work.
Assay [4] concerns the target α4β2 nAChR from β-6a-α and α4^VFL (1:1) (Homo sapiens, UniProt P17787+P43681, H142V/Q150F/T152L). Description: two-electrode voltage-clamp, oocytes, β-6a-α and α4^VFL. It counts as cell-based.
Assay [5] addresses α4β2 nAChR from β-6a-α and α4 (1:1) (Homo sapiens, UniProt P17787+P43681). Briefly: two-electrode voltage-clamp, oocytes, β-6a-α and α4. Particulars: β-6a-α + α4; biphasic fit. The assay is classed as cell-based.
For assay [6], the target named is α4β2 nAChR from β-6-α-9-β-6-α and α4 (1:1) (Homo sapiens, UniProt P17787+P43681). Description: two-electrode voltage-clamp, oocytes, β-6-α-9-β-6-α and α4. It counts as cell-based. Particulars: β-6-α-9-β-6-α + α4.
The target in assay [7] is α4β2 nAChR from β-6-α-9-β-6-α and α4^VFL (1:25) (Homo sapiens, UniProt P17787+P43681, H142V/Q150F/T152L). Briefly: two-electrode voltage-clamp, oocytes, β-6-α-9-β-6-α and α4^VFL 1:25. The assay is classed as cell-based. Particulars: β-6-α-9-β-6-α + α4^VFL 1:25; biphasic fit.
Chain of α4β2 nAChR from β-6-α-9-β-6-α and α4^VFL (1:25) (P17787 26-502): as the sequence (P17787 26-502) above
Chain of α4β2 nAChR from β-6-α-9-β-6-α and α4^VFL (1:25) (P43681 27-627, stated change not applied): as the sequence (P43681 27-627, stated change not applied) above
Chain of α4β2 nAChR from β-6-α-9-β-6-α and α4^VFL (1:25) (P17787 26-502): as the sequence (P17787 26-502) above
Chain of α4β2 nAChR from β-6-α-9-β-6-α and α4^VFL (1:25) (P43681 27-627, stated change not applied): as the sequence (P43681 27-627, stated change not applied) above
Chain of α4β2 nAChR from β-6-α-9-β-6-α and α4^VFL (1:25) (P43681 34-627 H142V/Q150F/T152L limits assumed): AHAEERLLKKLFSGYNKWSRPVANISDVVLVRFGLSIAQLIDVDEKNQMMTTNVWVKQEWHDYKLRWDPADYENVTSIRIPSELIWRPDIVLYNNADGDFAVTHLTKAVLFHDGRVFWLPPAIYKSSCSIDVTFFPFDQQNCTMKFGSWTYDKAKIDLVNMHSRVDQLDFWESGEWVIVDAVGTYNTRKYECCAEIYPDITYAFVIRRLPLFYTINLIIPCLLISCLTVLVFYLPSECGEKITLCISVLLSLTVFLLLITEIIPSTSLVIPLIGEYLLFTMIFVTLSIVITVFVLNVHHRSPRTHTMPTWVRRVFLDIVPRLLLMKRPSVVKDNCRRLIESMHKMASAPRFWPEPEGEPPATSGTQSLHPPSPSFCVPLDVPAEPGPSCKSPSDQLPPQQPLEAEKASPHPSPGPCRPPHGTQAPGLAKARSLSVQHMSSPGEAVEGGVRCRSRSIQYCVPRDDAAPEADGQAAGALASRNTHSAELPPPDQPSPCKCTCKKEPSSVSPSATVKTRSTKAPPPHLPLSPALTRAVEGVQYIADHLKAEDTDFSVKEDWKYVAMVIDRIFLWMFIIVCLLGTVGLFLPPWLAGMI
The target of assay [8] is α4β2 nAChR from β-3a-α and α4 (1:1) (Homo sapiens, UniProt P17787+P43681). Briefly: two-electrode voltage-clamp, oocytes, β-3a-α and α4. It counts as cell-based. Particulars: β-3a-α + α4; biphasic fit.
Assay [9] concerns the target α4β2 nAChR from β-0a-α and α4 (1:1) (Homo sapiens, UniProt P17787+P43681). Briefly: two-electrode voltage-clamp, oocytes, β-0a-α and α4. Particulars: β-0a-α + α4; biphasic fit. The assay is classed as cell-based.
The target in assay [10] is α4β2 nAChR from β-6-α and α4^VFL (1:25) (Homo sapiens, UniProt P17787+P43681, H142V/Q150F/T152L). Description: two-electrode voltage-clamp, oocytes, β-6-α and α4^VFL 1:25. The assay is classed as cell-based. Particulars: β-6-α + α4^VFL 1:25; biphasic fit.
Assay [11] concerns the target α4β2 nAChR from β-3a-α alone (Homo sapiens, UniProt P17787+P43681). Briefly: two-electrode voltage-clamp, oocytes, β-3a-α alone. The assay is classed as cell-based.

Read-outs that look alike come from different tables or passages of the source.

Chain of (α4)3(β2)2 nAChR from α4 and β2 (10:1) (P43681 27-627): as the sequence (P43681 27-627, stated change not applied) above
Chain of (α4)3(β2)2 nAChR from α4 and β2 (10:1) (P17787 26-502): as the sequence (P17787 26-502) above
Chain of α4β2 nAChR from β-6a-α and α4^VFL (1:1) (P17787 26-502): as above
Chain of α4β2 nAChR from β-6a-α and α4^VFL (1:1) (P43681 27-627, stated change not applied): as the sequence (P43681 27-627, stated change not applied) above
Chain of α4β2 nAChR from β-6a-α and α4^VFL (1:1) (P43681 27-627 H142V/Q150F/T152L): as the sequence (P43681 27-627, stated change not applied) above, with H116V, Q124F, T126L counted along it

Usually EC50 stands for the concentration needed to bring the measured effect to its halfway point. What is called Emax is the size of the effect at its maximum, as opposed to the concentration needed. The term Ki denotes the dissociation constant of the complex between target and ligand, obtained from inhibition or displacement. Take `N#Cc1cccc(-c2nc(-c3cccnc3)no2)c1` [NS9283, 3-(3-(pyridine-3-yl)-1,2,4-oxadiazol-5-yl)benzonitrile]: the “NS9283 effect on AChcontrol-evoked current amplitudes at […] or higher” value in assay [1] is “inhibition”. Besides, the EC50 in [2] is 5.01 µM; in assay [3] (NS9283 pEC50, β-6-α-9-β-6-α + α4^VFL 1:1, coapplied with 10 µM ACh) it was 10 µM; in assay [4] (NS9283 pEC50, β-6a-α + α4^VFL, coapplied with 10 µM ACh), 10 µM. In addition, the Emax in assay [2] (read-out: NS9283 Emax) came to 860 ± 60%. Further, the Ki at Ls-AChBP is 67 µM. Moreover, the “NS9283 E31.6 µM” value in assay [4] (β-6a-α + α4^VFL, […] NS9283 + 10 µM ACh, % change from AChcontrol current) was determined as 140 ± 10%.

Regarding `CC(=O)OCC[N+](C)(C)C` [ACh, acetylcholine], the Emax in assay [2] (read-out: ACh Emax) is 102 ± 1%; in assay [11] (read-out: ACh Emax), 103 ± 1%. Besides, the “ACh Frac (first component fraction)” value is given as 0.11 ± 0.03 in assay [2] (α4+β2 10:1, biphasic fit); 0.059 ± 0.018 in [5]; 0.035 ± 0.020 in assay [6] (biphasic fit); 0.40 ± 0.12 in assay [7]; 0.41 ± 0.09 in [3] (β-6-α-9-β-6-α + α4^VFL 1:1, biphasic fit); 0.11 ± 0.02 in [8]. Also, the “ACh Frac (first component fraction)” value in assay [4] (β-6a-α + α4^VFL, biphasic fit) was 0.31 ± 0.14; in [9], 0.053 ± 0.028; in assay [10], 0.39 ± 0.05; in assay [11] (β-3a-α alone, biphasic fit) it was 0.64 ± 0.11. Further, the “mean AChmax-evoked currents” value in assay [6] was 1–2 μA.
